Assay results from PubChem BioAssay (NCI).
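Assay format: 96-well plates, 48-hour exposure. The concentration for 50% growth inhibition is given as GI50. The concentration for full growth arrest is given as TGI.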

Assays:
Experiment in all cases: NCI anticancer screen, dose series, 48 h
MALME-3M melanoma = test system: MALME-3M melanoma
HOP-62 NSCLC = test system: HOP-62 NSCLC
OVCAR-8 ovarian = test system: OVCAR-8 ovarian
UACC-257 melanoma = test system: UACC-257 melanoma
HCC-2998 colon = test system: HCC-2998 colon
MDA-MB-435 = test system: MDA-MB-435
NCI-H226 lung = test system: NCI-H226 lung
MCF7 breast = test system: MCF7 breast
KM12 colon = test system: KM12 colon
MOLT-4 leukemia = test system: MOLT-4 leukemia
LOX IMVI melanoma = test system: LOX IMVI melanoma
SK-MEL-28 melanoma = test system: SK-MEL-28 melanoma
SN12C renal = test system: SN12C renal
CCRF-CEM leukemia = test system: CCRF-CEM leukemia
M14 melanoma = test system: M14 melanoma
OVCAR-3 ovarian = test system: OVCAR-3 ovarian
HS 578T breast = test system: HS 578T breast
COLO 205 colon = test system: COLO 205 colon
SNB-75 CNS = test system: SNB-75 CNS
SK-OV-3 ovarian = test system: SK-OV-3 ovarian
ACHN renal = test system: ACHN renal
SK-MEL-2 melanoma = test system: SK-MEL-2 melanoma
RXF 393 renal = test system: RXF 393 renal
DU-145 prostate = test system: DU-145 prostate
SF-268 CNS = test system: SF-268 CNS
SR leukemia = test system: SR leukemia
MDA-MB-231 breast = test system: MDA-MB-231 breast
U251 CNS = test system: U251 CNS
BT-549 breast = test system: BT-549 breast
SNB-19 CNS = test system: SNB-19 CNS
PC-3 prostate = test system: PC-3 prostate
OVCAR-5 ovarian = test system: OVCAR-5 ovarian
IGROV1 ovarian = test system: IGROV1 ovarian
T-47D breast = test system: T-47D breast
SF-295 CNS = test system: SF-295 CNS
A498 renal = test system: A498 renal
SF-539 CNS = test system: SF-539 CNS
NCI-H460 lung = test system: NCI-H460 lung
HT29 colon = test system: HT29 colon
HOP-92 NSCLC = test system: HOP-92 NSCLC
NCI-H23 lung = test system: NCI-H23 lung
CAKI-1 renal = test system: CAKI-1 renal
HCT-15 colon = test system: HCT-15 colon
SW-620 colon = test system: SW-620 colon
NCI-H522 lung = test system: NCI-H522 lung
NCI/ADR-RES ovarian = test system: NCI/ADR-RES ovarian
OVCAR-4 ovarian = test system: OVCAR-4 ovarian
TK-10 renal = test system: TK-10 renal
UO-31 renal = test system: UO-31 renal
EKVX NSCLC = test system: EKVX NSCLC
A549 NSCLC = test system: A549 NSCLC
UACC-62 melanoma = test system: UACC-62 melanoma
RPMI-8226 leukemia = test system: RPMI-8226 leukemia
HCT-116 colon = test system: HCT-116 colon
SK-MEL-5 melanoma = test system: SK-MEL-5 melanoma
786-0 renal = test system: 786-0 renal
K-562 leukemia = test system: K-562 leukemia

## O=C(/C=C/OC(=O)c1cccc(Cl)c1)c1ccc(Cl)cc1
MALME-3M melanoma
  GI50: 2.32 µM
  TGI: 39 µM
HOP-62 NSCLC
  GI50: > 100 µM
  TGI: > 100 µM
OVCAR-8 ovarian
  GI50: 46.4 µM
  TGI: > 100 µM
UACC-257 melanoma
  GI50: 97.6 µM
  TGI: > 100 µM
HCC-2998 colon
  GI50: 29.3 µM
  TGI: > 100 µM
MDA-MB-435
  GI50: 44.6 µM
  TGI: > 100 µM
NCI-H226 lung
  GI50: > 79 µM
  TGI: > 100 µM
MCF7 breast
  GI50: 48.7 µM
  TGI: > 100 µM
KM12 colon
  GI50: > 74.6 µM
  TGI: > 100 µM
MOLT-4 leukemia
  GI50: 31.8 µM
  TGI: > 78.6 µM
LOX IMVI melanoma
  GI50: 36.5 µM
  TGI: > 100 µM
SK-MEL-28 melanoma
  GI50: 58.1 µM
  TGI: > 100 µM
SN12C renal
  GI50: 28.5 µM
  TGI: > 100 µM
CCRF-CEM leukemia
  GI50: 37.5 µM
  TGI: > 100 µM
M14 melanoma
  GI50: 34.6 µM
  TGI: > 100 µM
OVCAR-3 ovarian
  GI50: 21.7 µM
  TGI: > 74 µM
HS 578T breast
  GI50: 23.2 µM
  TGI: > 70.4 µM
COLO 205 colon
  GI50: > 65 µM
  TGI: > 100 µM
SNB-75 CNS
  GI50: 17.3 µM
  TGI: 73.5 µM
SK-OV-3 ovarian
  GI50: 35.8 µM
  TGI: > 88.4 µM
ACHN renal
  GI50: 52.3 µM
  TGI: > 100 µM
SK-MEL-2 melanoma
  GI50: > 73.1 µM
  TGI: > 100 µM
RXF 393 renal
  GI50: > 100 µM
  TGI: > 100 µM
DU-145 prostate
  GI50: 44 µM
  TGI: > 100 µM
SF-268 CNS
  GI50: 41.9 µM
  TGI: > 100 µM
SR leukemia
  GI50: 22.9 µM
  TGI: > 92 µM
MDA-MB-231 breast
  GI50: 52.2 µM
  TGI: > 100 µM
U251 CNS
  GI50: 38.1 µM
  TGI: > 100 µM
BT-549 breast
  GI50: 30.3 µM
  TGI: > 77 µM
SNB-19 CNS
  GI50: > 56.5 µM
  TGI: > 100 µM
PC-3 prostate
  GI50: 30.7 µM
  TGI: > 95.9 µM
OVCAR-5 ovarian
  GI50: > 100 µM
  TGI: > 100 µM
IGROV1 ovarian
  GI50: > 46.8 µM
  TGI: > 100 µM
T-47D breast
  GI50: > 48.8 µM
  TGI: > 100 µM
SF-295 CNS
  GI50: 27.3 µM
  TGI: > 80.1 µM
A498 renal
  GI50: > 40.3 µM
  TGI: 96.9 µM
SF-539 CNS
  GI50: 23.1 µM
  TGI: 55.2 µM
NCI-H460 lung
  GI50: > 100 µM
  TGI: > 100 µM
HT29 colon
  GI50: 50 µM
  TGI: > 100 µM
HOP-92 NSCLC
  GI50: 33.5 µM
  TGI: > 100 µM
NCI-H23 lung
  GI50: 41.7 µM
  TGI: > 100 µM
CAKI-1 renal
  GI50: > 51.5 µM
  TGI: > 100 µM
HCT-15 colon
  GI50: 50.7 µM
  TGI: > 100 µM
SW-620 colon
  GI50: 29.4 µM
  TGI: > 82 µM
NCI-H522 lung
  GI50: > 93.3 µM
  TGI: > 100 µM
NCI/ADR-RES ovarian
  GI50: 63.9 µM
  TGI: > 100 µM
OVCAR-4 ovarian
  GI50: > 72.5 µM
  TGI: > 100 µM
TK-10 renal
  GI50: 32.7 µM
  TGI: > 100 µM
UO-31 renal
  GI50: > 100 µM
  TGI: > 100 µM
EKVX NSCLC
  GI50: > 100 µM
  TGI: > 100 µM
A549 NSCLC
  GI50: > 100 µM
  TGI: > 100 µM
UACC-62 melanoma
  GI50: > 80.8 µM
  TGI: > 100 µM
RPMI-8226 leukemia
  GI50: 30.5 µM
  TGI: > 100 µM
HCT-116 colon
  GI50: 31.3 µM
  TGI: > 100 µM
SK-MEL-5 melanoma
  GI50: 55.2 µM
  TGI: > 100 µM
786-0 renal
  GI50: > 91.7 µM
  TGI: > 100 µM
K-562 leukemia
  GI50: 34.5 µM
  TGI: > 100 µM
